Literature values as cited in patent publication US9114602B2, “Process for making lithographic printing plate” (FUJIFILM Corporation, priority 2011, dated 2015).

settings: at 20° C.

Point of comparison: `CC(C)C(C)O` (centres unmarked) [3-methyl-2-butanol], solubility in water 5.6 g/100 mL. Against it:
- CCC(C)CO (centres unmarked) [2-methyl-1-butanol] — lower, 3.0 g/100 mL
- CC(C)CCO [3-methyl-1-butanol] — lower, 2.7 g/100 mL
- CC(C)CC(C)O (centres unmarked) [4-methyl-2-pentanol] — lower, 2.0 g/100 mL
- CCCCCCOCCO [Ethylene glycol mono-n-hexyl ether, reference compound] — lower, 1.0 g/100 mL
- CCCCCO [Example 1-pentanol, 1-pentanol] — lower, 2.7 g/100 mL
- CCCC(C)O (centres unmarked) [Example 2-pentanol, 2-pentanol] — lower, 4.5 g/100 mL
- CCCC(C)=O [Example 2-pentanone, 2-pentanone] — lower, 4.0 g/100 mL
- CCC(O)CC [Example 3-pentanol, 3-pentanol] — lower, 5.2 g/100 mL
- OCc1ccccc1 [benzyl alcohol] — lower, 4.0 g/100 mL
- CCC(=O)CC [diethyl ketone] — lower, 1.7 g/100 mL
- CCCCOCCOCCOC(C)=O [diethylene glycol monobutyl ether acetate] — higher, 6.5 g/100 mL
- OCCOc1ccccc1 [ethylene glycol monophenyl ether] — lower, 2.7 g/100 mL
- CC(=O)OC(C)C [isopropyl acetate] — lower, 4.3 g/100 mL
- CC(C)(C)CO [neopentyl alcohol] — lower, 3.5 g/100 mL
- CCCOC(C)=O [propyl acetate] — lower, 1.6 g/100 mL
- CCCCOCC(C)O (centres unmarked) [propylene glycol mono-n-butyl ether] — lower, 4.4 g/100 mL
